{"source": "patent US10435333B2", "about": "“High temperature amine-stabilized DCD and/or alkyl thiophosphoric triamide solvent systems and use in agricultural applications” (RHODIA OPERATIONS, priority 2015, dated 2019)", "key": {"[1]": {"test": "visual physical stability of NBPT/DMSO formulation with 2 wt % amine stabilizer at high temperature (FIG. 1)", "type": "physicochemical", "conditions": "2 wt % amine stabilizer in NBPT/DMSO formulation, greater than 45° C.", "experimental": "FIG. 1 is a photograph of Several amines or amides were tested to check if they can stabilize NBPT degradation at high temperatures (at greater than 45° C.) in NBPT/DMSO formulation. Each sample was prepared with 2% of amine stabilizer added.\nReferring to FIG. 1, Several amines or amides were tested to check if they can stabilize NBPT degradation at high temperatures (at greater than 45° C.) in NBPT/DMSO formulation. Each sample was prepared with 2 wt % of amine stabilizer added."}, "[2]": {"conditions": "cited from earlier work"}, "[3]": {"test": "degradation of NBPT at high temperature (colour change, sludge/precipitate)", "type": "physicochemical", "experimental": "Another problem is that certain nitrification inhibitors and/or urease inhibitors degrade at high temperatures. […] Often times temperatures in agricultural fields (e.g., corn fields, wheat fields, etc.) reach in excess of 35° C. and sometimes can reach up to 45° C. or higher. For example, at 45° C. […] Thus, it is also desirable to have solvent systems containing nitrification inhibitors and/or urease inhibitors that are stabilized at high temperatures, such as those unitized in hot climates or weather. This invention addresses the addition of stabilizers to prolong the chemical and physical stability of formulated liquid agricultural compositions containing (i) one or more nitrification inhibitors, (ii) one or more urease inhibitors or (iii) a combination of both (i) and (ii). In one embodiment, the urease inhibitor is NBPT."}}, "data": [{"smiles": "NCCO", "note": "[monoethanolamine]", "values": [{"measurement": "physical stability by visual observation (appearance)", "setting": "[1]", "result": "better physical stability (less dark appearance)"}]}, {"smiles": "N#CNC(=N)N", "note": "[Dicyandiamide, 2-cyanoguanidine]", "values": [{"measurement": "solubility in water", "setting": "[2]", "result": "about 41 g/l"}]}, {"smiles": "CCCCNP(N)(N)=S", "note": "[NBPT, N-(n-butyl)-thiophosphoric triamide]", "values": [{"measurement": "appearance after exposure to high heat", "setting": "[3]; 45° C., NBPT formulated in different solvents, days to weeks", "result": "changes color in days from colorless to a darker green/brown, followed by sludge/precipitate formation after weeks"}, {"measurement": "degradation at higher temperature", "setting": "[3]; typically above 45° C.", "result": "degrades rapidly"}]}]}
